Data: patent publication US8999295B2, “Technique for drug and gene delivery to the cell cytosol” (Brigham Young University, priority 2009, dated 2015)

Tests used:
[1] = Volume expansion ratio on liquid-to-vapor transformation; assay type: physicochemical; details: at body temperature
[2] = cited from earlier work
[3] = at body temperature; cited from earlier work

Q: Which “expansion ratio (liquid to vapor volume)” value [1] does the source give for `FC(F)(F)C(F)(F)C(F)(F)C(F)(F)C(F)(F)F` [PFC5, perfluoropentane] here?
A: Its value is “approximately 103”.

Q: Which solubility in water [2] does the source give for `O=O` [oxygen] here?
A: The solubility in water was 1.32 mol/m^3.

Q: For `FC(F)(F)C(F)(F)C(F)(F)C(F)(F)C(F)(F)C(F)(F)F` [perfluorohexane], which solubility in water [2] is on record?
A: The solubility in water was 2.7×10^−4 mol/m^3.

Q: What about the “expansion ratio (liquid to vapor volume)” value [1] of the same compound?
A: The value was ~259.

Q: And the vapor pressure [3]?
A: Its vapor pressure is 0.48 atm.

Q: For `FC(F)(F)C(F)(F)C(F)(F)F` [perfluoropropane], which solubility in water [2] is on record?
A: The solubility in water was 0.19 mol/m^3.
